Source: ChEMBL document CHEMBL5505979, “Novel aminothiazoximone-corbelled ethoxycarbonylpyrimidones with antibiofilm activity to conquer Gram-negative bacteria through potential multitargeting effects” (Eur J Med Chem, 2024)
Converted amounts (≈) assume the structure as drawn. The source made the active and inactive calls. The calls are words filed in the database; no cut-off is given here.

Key:
[1] = system: Escherichia coli; experiment: Anti-bacterial activity against Escherichia coli ATCC 25922 assessed as growth inhibition by measuring optical density measured at 2 time of MIC in presence of 1/2 times of MIC of norfloxacin by Checkerboard assay (reference value: 0.128); assay type: functional
[2] = system: Escherichia coli; experiment: Reduction of biofilm virulent factors in Escherichia coli ATCC 25922 assessed as decrease in extracellular polymeric substances (EPS) by measuring optical density at 490 nm at 4 times of MIC concentration by congo red binding assay (reference value: 0.028 to 0.031); assay type: functional
[3] = Hemolysis in human RBC assessed as hemolysis rate at effective bactericidal concentration for 3 hrs; assay type: toxicity, cell-based, Erythrocyte; details: red blood cells, read-out: Activity
[4] = system: Escherichia coli; experiment: Reduction of biofilm virulent factors in Escherichia coli ATCC 25922 assessed as decrease in extracellular polymeric substances (EPS) by measuring optical density at 490 nm at 1/4 times of MIC concentration by congo red binding assay (reference value: 0.028 to 0.031); assay type: functional
[5] = system: Escherichia coli; experiment: Antibiofilm activity against Escherichia coli ATCC 25922 assessed as reduction of self-aggregation; assay type: functional, organism-based
[6] = Hemolysis in human RBC assessed as hemolysis rate at 128 times of MIC concentration for 6 hrs; assay type: toxicity, cell-based, Erythrocyte; details: red blood cells, read-out: Activity
[7] = system: Cell membrane; experiment: Induction of physical destruction of cell membrane in Escherichia coli ATCC 25922 assessed as leakage of nucleic acid by measuring absorbance of 260 nm at 1/4 to 8 times of MIC concentration; assay type: cell membranes
[8] = system: Acinetobacter baumannii; experiment: Anti-bacterial activity against Acinetobacter baumannii assessed as inhibition of bacterial growth measured after 20 passages at sub-MIC concentration by multiple resistance study; assay type: functional, organism-based
[9] = system: Acinetobacter baumannii; experiment: Anti-bacterial activity against Acinetobacter baumannii assessed as growth inhibition by measuring optical density measured at 1/4 time of MIC in presence of 1/8 times of MIC of norfloxacin by Checkerboard assay (reference value: 0.152); assay type: functional
[10] = Cytotoxicity against human L02 cells assessed as cell viability at effective concentration measured after 24 hrs; assay type: toxicity, cell-based; details: read-out: Activity
[11] = system: Acinetobacter baumannii; experiment: Reduction of biofilm virulent factors in Acinetobacter baumannii assessed as decrease in extracellular polymeric substances (EPS) by measuring optical density at 490 nm at 1 times of MIC concentration by congo red binding assay (reference value: 0.188 to 0.192); assay type: functional
[12] = system: Acinetobacter baumannii; experiment: Bactericidal activity against Acinetobacter baumannii assessed as bacterial killing at 1 to 8 times of MIC concentration measured upto 8 hrs by time-kill kinetics assay; assay type: functional, organism-based
[13] = system: Escherichia coli; experiment: Anti-bacterial activity against Escherichia coli ATCC 25922 assessed at fractional inhibitory concentration index measured upto 9 hrs in presence of norfloxacin; assay type: functional
[14] = system: Acinetobacter baumannii; experiment: Anti-bacterial activity against Acinetobacter baumannii assessed as growth inhibition by measuring optical density measured at 4 time of MIC in presence of 1/8 times of MIC of norfloxacin by Checkerboard assay (reference value: 0.152); assay type: functional
[15] = system: Staphylococcus aureus; experiment: Anti-bacterial activity against Staphylococcus aureus ATCC 1708 assessed as inhibition of bacterial growth; assay type: functional; details: Staphylococcus aureus, ATCC 1708; read-out: MIC
[16] = system: Acinetobacter baumannii; experiment: Anti-bacterial activity against Acinetobacter baumannii assessed as growth inhibition by measuring optical density measured at 1/2 time of MIC in presence of 1 times of MIC of norfloxacin by Checkerboard assay (reference value: 0.152); assay type: functional
[17] = system: Staphylococcus aureus; experiment: Anti-bacterial activity against Staphylococcus aureus ATCC 29213 assessed as inhibition of bacterial growth; assay type: functional; details: Staphylococcus aureus, ATCC 29213; read-out: MIC
[18] = system: Escherichia coli; experiment: Induction of membrane depolarization Escherichia coli ATCC 25922 assessed as increase in red fluorescence intensity at 0.5 to 8 times of MIC concentration measured after 6 hrs by […] assay; assay type: functional, organism-based
[19] = system: Escherichia coli; experiment: Anti-bacterial activity against Escherichia coli ATCC 25922 assessed as growth inhibition by measuring optical density measured at 1/2 time of MIC in presence of 1/2 times of MIC of norfloxacin by Checkerboard assay (reference value: 0.124); assay type: functional
[20] = system: Escherichia coli; experiment: Anti-bacterial activity against Escherichia coli ATCC 25922 assessed as growth inhibition by measuring optical density measured at 4 time of MIC in presence of 1/8 times of MIC of norfloxacin by Checkerboard assay (reference value: 0.125); assay type: functional
[21] = system: Escherichia coli; experiment: Anti-bacterial activity against Escherichia coli ATCC 25922 assessed as growth inhibition by measuring optical density measured at 2 time of MIC in presence of 1/8 times of MIC of norfloxacin by Checkerboard assay (reference value: 0.128); assay type: functional
[22] = system: Acinetobacter baumannii; experiment: Anti-bacterial activity against Acinetobacter baumannii assessed as growth inhibition by measuring optical density measured at 1 time of MIC in presence of 2 times of MIC of norfloxacin by Checkerboard assay (reference value: 0.157); assay type: functional
[23] = system: Acinetobacter baumannii; experiment: Anti-bacterial activity against Acinetobacter baumannii assessed as bacterial mortality at 1 to 4 MIC concentration by propidium iodide based fluorescence microscopy relative to control; assay type: functional, organism-based
[24] = system: Escherichia coli; experiment: Anti-bacterial activity against Escherichia coli ATCC 25922 assessed as growth inhibition by measuring optical density measured at 4 time of MIC in presence of 1 times of MIC of norfloxacin by Checkerboard assay (reference value: 0.125); assay type: functional
[25] = system: Escherichia coli; experiment: Anti-bacterial activity against Escherichia coli ATCC 25922 assessed as growth inhibition by measuring optical density measured at 1 time of MIC in presence of 1 times of MIC of norfloxacin by Checkerboard assay (reference value: 0.125); assay type: functional
[26] = system: Acinetobacter baumannii; experiment: Reduction of biofilm virulent factors in Acinetobacter baumannii assessed as decrease in extracellular polymeric substances (EPS) by measuring optical density at 490 nm at 1/2 times of MIC concentration by congo red binding assay (reference value: 0.188 to 0.192); assay type: functional
[27] = system: Acinetobacter baumannii; experiment: Anti-bacterial activity against Acinetobacter baumannii assessed as fractional inhibitory concentration index measured upto 9 hrs in presence of norfloxacin; assay type: functional
[28] = system: Escherichia coli; experiment: Anti-bacterial activity against Escherichia coli ATCC 25922 assessed as growth inhibition by measuring optical density measured at 4 time of MIC in presence of 1/2 times of MIC of norfloxacin by Checkerboard assay (reference value: 0.125); assay type: functional
[29] = system: Acinetobacter baumannii; experiment: Reduction of biofilm virulent factors in Acinetobacter baumannii assessed as decrease in extracellular polymeric substances (EPS) at 4 times of MIC concentration by congo red binding assay relative to control; assay type: functional; parameters: scale not given: the % may be the effect or the level left
[30] = system: Escherichia coli; experiment: Anti-bacterial activity against Escherichia coli ATCC 25922 assessed as bacterial mortality at 1 to 4 MIC concentration by propidium iodide based fluorescence microscopy relative to control; assay type: functional, organism-based
[31] = system: Cell membrane; experiment: Induction of physical destruction of cell membrane in Acinetobacter baumannii assessed as leakage of protein at 1/4 to 8 times of MIC concentration by Coomassie blue quantitative assay; assay type: cell membranes
[32] = system: Escherichia coli; experiment: Anti-bacterial activity against Escherichia coli ATCC 25922 assessed as inhibition of bacterial growth measured after 20 passages at sub-MIC concentration by multiple resistance study; assay type: functional, organism-based
[33] = system: Escherichia coli; experiment: Anti-bacterial activity against Escherichia coli ATCC 25922 assessed as growth inhibition by measuring optical density measured at 1/2 time of MIC in presence of 1/8 times of MIC of norfloxacin by Checkerboard assay (reference value: 0.124); assay type: functional

Molecule `CCCCc1nc(Cl)c(C2NC(=O)NC(CN3CCN(C(=O)/C(=N/OC)c4csc(N)n4)CC3)=C2C(=O)OCC)[nH]1` (stereo not drawn) has an OD [1] of 0.057, an OD [2] of 0.061 and a hemolysis at 3 h [3] of less than 5%. The OD [4] was 0.12, the Activity [5] was “Dose-Dependent Effect” and the hemolysis at 6 h, 128 x MIC [6] was 0.8%. For the same molecule, the Activity [7] was “Active”, the Activity [8] was “Active” and the OD [9] was 0.127. For the same molecule, the viability at 24 h [10] was greater than 95%, the OD [11] was 0.163 and the Activity [12] was “Active”. The “fractional inhibitory concentration index (FICI)” value [13] was 0.75, the OD [14] was 0.118 and the MIC [15] was 13 µM (≈ 7.91 µg/mL). The OD [16] was 0.109, the MIC [17] was 26 µM (≈ 15.8 µg/mL) and the Activity [18] was “Active”. For the same molecule, the OD [19] was 0.107, the OD [20] was 0.108 and the OD [21] was 0.122. For the same molecule, the OD [22] was 0.053, the Activity [23] was “Active” and the OD [24] was 0.051. The OD [25] was 0.056, the OD [26] was 0.173 and the “fractional inhibitory concentration index (FICI)” value [27] was 0.75. For the same molecule, the OD [28] was 0.052, the Activity [29] was 52.4% and the Activity [30] was “Active”. For the same molecule, the Activity [31] was “Active”, the Activity [32] was “Active” and the OD [33] was 0.117.
